Measurements as given in article PMC9696832, “Pyrazole-Based Thrombin Inhibitors with a Serine-Trapping Mechanism of Action: Synthesis and Biological Activity” (Pharmaceuticals, 2022).
Where “and” joins values, the source holds several entries; their conditions need not be identical. Equal entries are not always repeated. Where two headings read alike, the source gives them in different places.

Tests used:
[1] = tested on: human pooled plasma; assay: In vitro plasma coagulation assay (aPTT); format: biochemical; conditions: tested at 200 μM
Experimental: (§1) In vitro plasma coagulation assays (aPTT and PT). All measurements were performed using commercially available citrated (3.8%) human pooled plasma (Dunn Labortechnik GmbH, Germany) on a semi-automated coagulometer (Thrombotimer-2, Behnk Elektronik, Germany) according to the manufacturer instructions as previously reported. For aPTT measurement, plasma (100 μL) was placed into the incubation cuvettes of the instrument and incubated for 2 min at 37 °C. Then, test compound solution (10 μL) or solvent (DMSO, 10 μL) was added with a pipette. After 1 min of incubation, 100 μL of prewarmed (37 °C) aPTT reagent (Convergent Technologies, Germany) was added and incubated for additional 2 min. The cuvettes were transferred to a measuring position, the coagulation was initiated by addition of 100 μL of CaCl2 solution (25 mM, prewarmed at 37 °C, Convergent Technologies, Germany) and the clotting time was recorded. For PT assays, plasma (100 μL) was incubated for 2 min at 37 °C. Then, test compound solution (10 μL) or solvent (DMSO, 10 μL) was added with a pipette. After 3 min of incubation, the cuvettes were transferred to a measuring position, the coagulation was initiated by addition of 100 μL of PT assay reagent already containing CaCl2 (prewarmed at 37 °C, Biolabo, France) and the clotting time was recorded.

[2] = molecular target: T1, human plasmin (Homo sapiens, UniProt P00747); assay: Serine protease inhibition assay, fluorogenic substrate: plasmin; format: biochemical; conditions: screened at 5 μM; [S]0 = 25 µM; read-out: Serine Protease IC50 ± SD, Plasmin
T1 construct: human plasmin, >95% purity; purchased Innovative Research
Experimental: (§2) Serine protease inhibition assays. The inhibitory activity of synthesized compounds towards thrombin, FXIIa, FXa, FXIa, plasmin, plasma kallikrein, chymotrypsin, and trypsin was measured by quantifying the hydrolysis rate of the fluorogenic substrate as reported previously. Briefly, the activity was tested in buffer (10 mM Tris-Cl, 150 mM NaCl, 10 mM MgCl2·6H2O, 1 mM CaCl2·2H2O, 0.1% w/v BSA, 0.01% v/v Triton-X100, pH = 7.4) utilizing clear flat-bottom, black polystyrene 96 well-plates. […] Dilutions of test-compounds ranging from 2 nM to 32 µM (final concentrations) in DMSO were prepared. The fluorogenic substrate solution was added into the wells followed by the addition of 2 µL of test-compounds solution, and the reaction was triggered by addition of the enzyme solution (final testing volume–152 µL). In case of blank (substrate + buffer) and control (substrate + enzyme) wells, 2 µL of DMSO was added instead of the test-compounds’ solution. Fluorescence intensity was measured with Microplate Reader Mithras LB 940 (Berthold Technologies, excitation at 355 nm, emission at 460 nm) for a period of 1 h (thrombin, FXIIa, FXa, FXIa, and trypsin), 30 min (plasma kallikrein, chymotrypsin), or 15 min (plasmin) with a read every minute. The reactions were performed at 25 °C. To derive IC50 values, endpoint RFU (single fluorescence reading) was used. Sigmoidal curves were prepared in GraphPad Prism software and IC50 values were derived from the fitted curves.

[3] = tested on: human pooled plasma; assay: In vitro plasma coagulation assay (PT); format: biochemical; conditions: tested at 200 μM
Experimental: as §1

[4] = molecular target: T2, human Factor XIa (Homo sapiens, UniProt P03951); assay: Serine protease inhibition assay, fluorogenic substrate: FXIa; format: biochemical
T2 construct: human Factor XIa, HFXIA; purchased Molecular Innovations HFXIA
Experimental: as §2

[5] = molecular target: T3, human plasma kallikrein (Homo sapiens, UniProt P03952); assay: Serine protease inhibition assay, fluorogenic substrate: plasma kallikrein; format: biochemical; conditions: screened at 5 μM; IC50 in triplicate for actives; [S]0 = 25 µM; read-out: Serine Protease IC50 ± SD, PK (plasma kallikrein)
T3 construct: human plasma kallikrein, >94% purity; purchased Innovative Research
Experimental: as §2

[6] = molecular target: T4, human Factor Xa (Homo sapiens, UniProt P00742); assay: Serine protease inhibition assay, fluorogenic substrate: FXa; format: biochemical; conditions: for IC50: screened at 5 μM, IC50 in triplicate for actives, [S]0 = 25 µM, read-out: Serine Protease IC50 ± SD, FXa
T4 construct: human Factor Xa, HFXA; purchased Molecular Innovations HFXA
Experimental: as §2

[7] = tested on: human chymotrypsin; assay: Serine protease inhibition assay, fluorogenic substrate: chymotrypsin; format: biochemical; conditions: for IC50: screened at 5 μM, IC50 in triplicate for actives, [S]0 = 25 µM, read-out: Serine Protease IC50 ± SD, Chymotrypsin
Experimental: as §2

[8] = molecular target: T5, human α-thrombin (Homo sapiens, UniProt P00734); assay: Serine protease inhibition assay, fluorogenic substrate: thrombin; format: biochemical
T5 construct: human α-thrombin (active) protein; purchased antibodies-online ABIN2127880
Experimental: Serine protease inhibition assays. The inhibitory activity of synthesized compounds towards thrombin, FXIIa, FXa, FXIa, plasmin, plasma kallikrein, chymotrypsin, and trypsin was measured by quantifying the hydrolysis rate of the fluorogenic substrate as reported previously [14, 17]. Briefly, the activity was tested in buffer (10 mM Tris-Cl, 150 mM NaCl, 10 mM MgCl2·6H2O, 1 mM CaCl2·2H2O, 0.1% w/v BSA, 0.01% v/v Triton-X100, pH = 7.4) utilizing clear flat-bottom, black polystyrene 96 well-plates. […] The fluorogenic substrate solution was added into the wells followed by the addition of 2 µL of test-compounds solution, and the reaction was triggered by addition of the enzyme solution (final testing volume–152 µL). In case of blank (substrate + buffer) and control (substrate + enzyme) wells, 2 µL of DMSO was added instead of the test-compounds’ solution. […] To derive IC50 values, endpoint RFU (single fluorescence reading) was used. Sigmoidal curves were prepared in GraphPad Prism software and IC50 values were derived from the fitted curves [14, 17].

[9] = molecular target: T6, porcine trypsin (Sus scrofa, UniProt P00761); assay: Serine protease inhibition assay, fluorogenic substrate: trypsin; format: biochemical; conditions: screened at 5 μM; [S]0 = 25 µM; read-out: Serine Protease IC50 ± SD, Trypsin
T6 construct: porcine trypsin; Merck; purchased Merck
Experimental: as §2

[10] = molecular target: T7, human β-FXIIa (Homo sapiens, UniProt P00748); assay: Serine protease inhibition assay, fluorogenic substrate: FXIIa; format: biochemical; conditions: read-out: Serine Protease IC50 ± SD, FXIIa
T7 construct: human β-FXIIa, HFXIIAB; purchased Molecular Innovations HFXIIAB
Experimental: as §2

[11] = molecular target: T5, human α-thrombin; assay: Mass-shift assay of the covalent thrombin-inhibitor complex by LC/ESI-MS; conditions: 79 μM inhibitor, preincubated 15 min, ESI(+); corresponds to pivaloyl moiety
Experimental: Analysis of the covalent thrombin-inhibitor complex by LC/ESI-MS. The analysis of covalent thrombin-inhibitor complex was performed utilizing LC/ESI-MS as reported previously with variations. Briefly, 2 µL of the stock solution (128 µM) of human α-thrombin (active) protein (ABIN2127880, >95% purity; antibodies-online) were diluted with 68 µL of purified water. […] Reversed phase liquid chromatography was performed using a Discovery BIO Wide Pore C5 column (100 × 2.1 mm, 3 µm particle size, 300 Å pore size) from Supelco (Bellefonte, PA, USA). For chromatographic analysis of the sample solutions, 0.1% formic acid in purified water (A) and 0.1% formic acid in acetonitrile (B) were used as mobile phase. The following gradient of 15 min in total was applied: starting with 5% B, B is increased up to 40% within 3 min. After holding 40% B for 1.5 min, B is decreased to 5% within 0.5 min and kept at 5% for 1 min. B is then increased to 95% within 4 min and kept at this value for 1 min. After decreasing B to 5% within 1 min, this ratio is kept for 3 min. […] The enzyme-inhibitor complex was analyzed in the positive ion mode using the following ESI-MS parameters: The mass range was set to m/z 1000–4000, nebulizer gas (nitrogen) was 1.6 bar, dry gas (nitrogen) was 9.0 L/min, dry gas temperature was 200 °C, Funnel 1 RF was 450 V, pre pulse storage time was 30 µs and transfer time was 100 µs. […]

[12] = screened at 5 μM, IC50 in triplicate for actives, [S]0 = 25 µM, read-out: Serine Protease IC50 ± SD, FXIa
[13] = read-out: Serine Protease IC50 ± SD, Thrombin
[14] = [S]0 = 25 µM Boc-Val-Pro-Arg-AMC, Km = 18 ± 1 µM, triplicate, 25 °C, read-out: Serine Protease IC50 ± SD, Thrombin

T1 sequence (P00747 581-810 limits assumed): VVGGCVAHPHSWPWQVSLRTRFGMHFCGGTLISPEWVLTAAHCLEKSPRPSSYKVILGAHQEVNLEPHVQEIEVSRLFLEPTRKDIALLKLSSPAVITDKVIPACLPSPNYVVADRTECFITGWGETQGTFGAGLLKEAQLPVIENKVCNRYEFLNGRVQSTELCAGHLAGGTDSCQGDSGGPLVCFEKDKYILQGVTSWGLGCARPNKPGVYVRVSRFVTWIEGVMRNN
T1 sequence (P00747 97-580 limits assumed): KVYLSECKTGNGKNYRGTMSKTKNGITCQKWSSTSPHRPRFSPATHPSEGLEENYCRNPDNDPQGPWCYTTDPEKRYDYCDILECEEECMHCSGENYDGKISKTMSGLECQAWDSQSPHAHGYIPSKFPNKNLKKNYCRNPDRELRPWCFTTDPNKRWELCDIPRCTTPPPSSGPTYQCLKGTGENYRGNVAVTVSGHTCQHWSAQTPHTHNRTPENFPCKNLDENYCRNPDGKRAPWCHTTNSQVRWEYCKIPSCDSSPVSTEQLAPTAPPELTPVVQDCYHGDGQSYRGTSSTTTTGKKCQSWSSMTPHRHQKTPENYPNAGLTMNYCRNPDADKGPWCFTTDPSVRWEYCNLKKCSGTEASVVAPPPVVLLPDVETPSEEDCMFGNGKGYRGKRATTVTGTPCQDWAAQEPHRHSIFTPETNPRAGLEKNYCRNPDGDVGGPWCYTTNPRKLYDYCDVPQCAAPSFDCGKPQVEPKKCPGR
T7 sequence (P00748 373-615 limits assumed, other chains not shown): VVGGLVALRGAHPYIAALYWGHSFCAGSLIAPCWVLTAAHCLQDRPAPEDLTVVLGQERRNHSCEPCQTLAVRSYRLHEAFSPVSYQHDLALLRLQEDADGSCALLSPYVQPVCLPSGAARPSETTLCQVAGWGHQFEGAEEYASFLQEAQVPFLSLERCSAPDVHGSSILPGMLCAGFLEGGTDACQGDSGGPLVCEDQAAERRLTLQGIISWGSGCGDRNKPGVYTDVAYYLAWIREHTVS
T2 sequence (P03951 388-625 limits assumed): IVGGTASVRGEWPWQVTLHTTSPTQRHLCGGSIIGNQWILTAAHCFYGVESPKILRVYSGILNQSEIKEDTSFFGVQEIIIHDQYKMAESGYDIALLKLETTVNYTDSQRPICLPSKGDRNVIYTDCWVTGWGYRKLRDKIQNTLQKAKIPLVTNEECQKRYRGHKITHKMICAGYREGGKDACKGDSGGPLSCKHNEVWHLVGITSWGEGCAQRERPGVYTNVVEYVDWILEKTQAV
T2 sequence (P03951 19-387 limits assumed): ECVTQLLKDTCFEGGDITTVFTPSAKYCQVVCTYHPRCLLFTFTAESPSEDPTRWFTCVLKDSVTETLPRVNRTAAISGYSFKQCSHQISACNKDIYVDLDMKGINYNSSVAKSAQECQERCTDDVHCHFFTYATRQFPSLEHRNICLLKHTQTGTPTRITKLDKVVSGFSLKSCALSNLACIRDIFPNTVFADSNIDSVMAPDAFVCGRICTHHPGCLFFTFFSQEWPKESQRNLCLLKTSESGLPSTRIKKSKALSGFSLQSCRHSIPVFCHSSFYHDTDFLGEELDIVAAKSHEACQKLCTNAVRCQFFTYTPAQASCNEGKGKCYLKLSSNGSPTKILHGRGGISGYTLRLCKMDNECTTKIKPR
T6 sequence (P00761 9-231): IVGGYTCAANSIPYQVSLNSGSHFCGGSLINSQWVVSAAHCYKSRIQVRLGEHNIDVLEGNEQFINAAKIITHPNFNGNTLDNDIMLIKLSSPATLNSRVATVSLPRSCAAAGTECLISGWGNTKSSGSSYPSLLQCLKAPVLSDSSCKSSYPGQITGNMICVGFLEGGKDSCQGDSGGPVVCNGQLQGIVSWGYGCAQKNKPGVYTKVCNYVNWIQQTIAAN
T3 sequence (P03952 391-638 limits assumed): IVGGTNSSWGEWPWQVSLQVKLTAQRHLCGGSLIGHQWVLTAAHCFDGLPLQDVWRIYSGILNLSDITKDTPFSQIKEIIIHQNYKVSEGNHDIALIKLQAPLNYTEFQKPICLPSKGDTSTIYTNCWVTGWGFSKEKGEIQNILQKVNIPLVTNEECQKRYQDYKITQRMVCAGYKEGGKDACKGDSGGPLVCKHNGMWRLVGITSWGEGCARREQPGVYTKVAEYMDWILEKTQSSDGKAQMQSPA
T3 sequence (P03952 20-390 limits assumed): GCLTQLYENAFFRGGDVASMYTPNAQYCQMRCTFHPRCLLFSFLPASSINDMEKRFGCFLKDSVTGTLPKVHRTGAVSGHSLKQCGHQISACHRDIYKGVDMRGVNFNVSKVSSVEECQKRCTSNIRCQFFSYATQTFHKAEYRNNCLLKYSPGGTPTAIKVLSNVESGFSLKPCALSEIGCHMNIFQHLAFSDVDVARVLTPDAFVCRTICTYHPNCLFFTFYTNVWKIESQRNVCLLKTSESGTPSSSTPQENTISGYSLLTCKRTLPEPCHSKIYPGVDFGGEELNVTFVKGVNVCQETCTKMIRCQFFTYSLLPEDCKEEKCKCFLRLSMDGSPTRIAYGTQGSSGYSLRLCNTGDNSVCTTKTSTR
T4 sequence (P00742 235-488 limits assumed): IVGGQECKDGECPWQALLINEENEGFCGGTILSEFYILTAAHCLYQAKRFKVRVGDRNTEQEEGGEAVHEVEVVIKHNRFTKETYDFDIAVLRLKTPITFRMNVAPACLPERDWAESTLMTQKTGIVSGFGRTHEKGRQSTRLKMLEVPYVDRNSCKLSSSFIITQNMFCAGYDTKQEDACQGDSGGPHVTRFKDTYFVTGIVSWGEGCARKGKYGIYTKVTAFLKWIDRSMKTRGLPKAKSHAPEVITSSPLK
T4 sequence (P00742 41-179 limits assumed): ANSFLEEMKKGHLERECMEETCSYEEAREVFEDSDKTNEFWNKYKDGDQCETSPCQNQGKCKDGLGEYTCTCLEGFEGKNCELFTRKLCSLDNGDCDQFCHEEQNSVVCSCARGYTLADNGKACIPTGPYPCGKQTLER

Row | SMILES | aPTT, fold increase compared to DMSO [1] [fold] | IC50 [2] [µM] | PT, fold increase compared to DMSO [3] [fold] | IC50 [4, 12] [µM] | IC50 [5] [µM] | IC50 [6] [µM] | IC50 [7] [µM] | IC50 [8, 13] [µM] | IC50 [9] [µM] | IC50 [10] [µM] | IC50 ([4]; read-out: FXIa IC50) [µM] | inhibition at 5 µM ([6]; at 5 μM) [%] | IC50 [8, 14] [µM] | melting point [°C] | mass-shift of thrombin after incubation with inhibitor (Δm) [11] | fold higher dose for 50% inhibition of chymotrypsin than for thrombin ([7]; selectivity chymotrypsin vs thrombin) [fold] | fold more potent thrombin inhibitor than 3-phenyl-substituted analog 24g ([8]; IC50 16 nM vs. 419) [fold] | IC50 ([8]; read-out: thrombin IC50) [µM]
1 | O=C(c1ccccc1)n1nc(-c2ccccc2)c(F)c1NCc1ccc(Cl)s1 [34b, (5-(((5-chlorothiophen-2-yl)methyl)amino)-4-fluoro-3-phenyl-1H-pyrazol-1-yl)(phenyl)methanone] | 1.0 | > 5 | 1.1 | > 5 | > 5 | > 5 | 1.15 ± 0.11 | 0.071 ± 0.003 | > 5 | > 5 | – | – | – | – | – | – | – | –
2 | O=C(c1ccccc1)n1nc(-c2cccnc2)cc1NCc1ccc(Cl)s1 [compound 25, (5-{[(5-chlorothiophen-2-yl)methyl]amino}-3-(pyridin-3-yl)-1H-pyrazol-1-yl)(phenyl)methanone] | 1.1 | > 5 | 1.2 | 1.02 ± 0.09 | 0.639 ± 0.156 | ~5 | 0.242 ± 0.013 | – | > 5 | > 5 | 1 | 54 | 0.018 ± 0.001 | – | – | – | – | –
3 | CC(C)(C)C(=O)n1nc(-c2cccnc2)cc1NCc1ccc(Cl)s1 [24e, 1-(5-{[(5-chlorothiophen-2-yl)methyl]amino}-3-(pyridin-3-yl)-1H-pyrazol-1-yl)-2,2-dimethylpropan-1-one] | 1.1 | > 5 | 1.1 | > 5 | > 5 | > 5 | 0.875 ± 0.059 | – | > 5 | > 5 | – | – | 0.016 ± 0.001 | 96 to 97 | 84.5 Da and 84.53 Da | 55 | 26 | –
4 | COc1ccc(CNc2cc(-c3cccnc3)nn2C(=O)c2ccccc2I)cc1 [9b, (2-iodophenyl){5-[(4-methoxybenzyl)amino]-3-(pyridin-3-yl)-1H-pyrazol-1-yl}methanone] | – | – | – | – | – | – | – | > 5 | – | > 5 | – | – | – | 136 to 137 | – | – | – | –
5 | O=c1c2ccccc2n(Cc2ccco2)c2cc(-c3cccnc3)nn12 [10d, 4-[(furan-2-yl)methyl]-2-(pyridin-3-yl)pyrazolo[5,1-b]quinazolin-9(4H)-one] | – | – | – | – | – | – | – | > 5 | – | > 5 | – | – | – | 272 | – | – | – | –
6 | O=C(c1ccccc1I)n1nc(-c2ccccc2)cc1NCc1ccc(Cl)s1 [9g, (5-{[(5-chlorothiophen-2-yl)methyl]amino}-3-phenyl-1H-pyrazol-1-yl)(2-iodophenyl)methanone] | – | – | – | – | – | – | – | – | – | > 5 | – | – | 1.31 ± 0.032 | 137 to 138 | – | – | – | 1.3
7 | O=c1c2ccccc2n(Cc2cccc3ccccc23)c2cc(-c3cccnc3)nn12 [10c, 4-[(naphthalen-1-yl)methyl]-2-(pyridin-3-yl)pyrazolo[5,1-b]quinazolin-9(4H)-one] | – | – | – | – | – | – | – | > 5 | – | > 5 | – | – | – | 252 | – | – | – | –
8 | O=C(c1ccccc1I)n1nc(-c2cccnc2)cc1NCc1ccco1 [9d, {5-[(furan-2-ylmethyl)amino]-3-(pyridin-3-yl)-1H-pyrazol-1-yl}(2-iodophenyl)methanone] | – | – | – | – | – | – | – | > 5 | – | > 5 | – | – | – | 103 to 104 | – | – | – | –
9 | CC(C)(C)C(=O)n1nc(C2CCCCC2)cc1NCc1ccc(Cl)s1 [24i, 1-(5-{[(5-chlorothiophen-2-yl)methyl]amino}-3-cyclohexyl-1H-pyrazol-1-yl)-2,2-dimethylpropan-1-one] | – | – | – | – | – | – | – | – | – | > 5 | – | – | > 5 | 92 to 93 | – | – | – | –
10 | CC(C)(C)C(=O)n1nc(-c2ccccc2)c(F)c1NCc1ccc(Cl)s1 [34a, 1-(5-(((5-chlorothiophen-2-yl)methyl)amino)-4-fluoro-3-phenyl-1H-pyrazol-1-yl)-2,2-dimethylpropan-1-one] | 1.0 | > 5 | 1.1 | > 5 | > 5 | > 5 | > 5 | – | > 5 | > 5 | – | – | 0.08 ± 0.002 | – | – | – | – | –
